From patent US10729684B2, “Alkynyl dihydroquinoline sulfonamide compounds” (AMGEN INC., priority 2015, dated 2020)

Legend:
hNav1.7 = hNav1.7 (Homo sapiens (Human), UniProt Q15858); assay: Nav 1.7 IWQ in vitro assay (IonWorks Quattro population patch-clamp); format: cell-based; conditions: HEK 293 cells stably transfected with Nav 1.7
Experimental: Nav 1.7 or Nav 1.5 IWQ In Vitro Assay
HEK 293 Cells stably transfected with either Nav 1.7 or Nav 1.5 were recorded in population patch-clamp mode with the IonWorks® Quattro automated electrophysiology system in accordance with the manufacturer's specifications (Molecular Devices, LLC, Sunnyvale, Calif.). Sodium channel currents were measured in response to a train of depolarizations that induced successively greater inactivation.
Cells were held at −110 mV for three seconds (Nav 1.7) or half a second (Nav 1.5) from a holding voltage of −15 mV, then put through a series of 26 pulses of 150 msec duration to −20 mV at a frequency of 5 Hz. Cells were then left unclamped for a period of 3 to 8 minutes while a single concentration of test compound was added. Cells were then reclamped and put through the same voltage protocol. Current at the end of the 26th pulse to −20 mV was subtracted from the peak current evoked by the 26th pulse to −20 mV to correct for leak current. Percent block was calculated for each concentration in duplicate, and IC50 curves were fitted to percent block as a function of concentration.

RLM in vitro = conditions: b278 calls it HLM data in vitro
human PXR = human PXR (Homo sapiens (Human), UniProt O75469); assay: human PXR @ 2 uM POC
human Nav1.7 = human Nav1.7 (Homo sapiens (Human), UniProt Q15858); assay: Nav 1.7 in vitro PX assay (PatchXpress whole cell voltage clamp); format: cell-based; conditions: HEK 293 cells stably transfected with human Nav1.7, partially inactivated state, read-out: hNav1.7 PX IC50
Experimental: Nav 1.7 In Vitro PX Assay
HEK 293 cells stably transfected with human Nav1.7 were recorded in whole cell voltage clamp mode with the PatchXpress automated electrophysiology system (Molecular Devices, LLC, Sunnyvale, Calif.). Compound effects were measured on a partially inactivated state of the sodium channel. Cells were clamped to a holding potential yielding 20 to 50% inactivation. To elicit sodium current, channels were activated by pulsing to −10 mV for 20 msec. This voltage protocol was repeated at a rate of 0.1 Hz throughout the experiment. A single concentration of test compound was applied to cells for a duration of 3 minutes. Peak sodium current was measured at the end of the compound addition period to determine percent inhibition. Three to five cells were tested per concentration, and IC50 curves were fitted to percent inhibition as a function of concentration.

hNav1.7, sequence (Q15858 whole entry): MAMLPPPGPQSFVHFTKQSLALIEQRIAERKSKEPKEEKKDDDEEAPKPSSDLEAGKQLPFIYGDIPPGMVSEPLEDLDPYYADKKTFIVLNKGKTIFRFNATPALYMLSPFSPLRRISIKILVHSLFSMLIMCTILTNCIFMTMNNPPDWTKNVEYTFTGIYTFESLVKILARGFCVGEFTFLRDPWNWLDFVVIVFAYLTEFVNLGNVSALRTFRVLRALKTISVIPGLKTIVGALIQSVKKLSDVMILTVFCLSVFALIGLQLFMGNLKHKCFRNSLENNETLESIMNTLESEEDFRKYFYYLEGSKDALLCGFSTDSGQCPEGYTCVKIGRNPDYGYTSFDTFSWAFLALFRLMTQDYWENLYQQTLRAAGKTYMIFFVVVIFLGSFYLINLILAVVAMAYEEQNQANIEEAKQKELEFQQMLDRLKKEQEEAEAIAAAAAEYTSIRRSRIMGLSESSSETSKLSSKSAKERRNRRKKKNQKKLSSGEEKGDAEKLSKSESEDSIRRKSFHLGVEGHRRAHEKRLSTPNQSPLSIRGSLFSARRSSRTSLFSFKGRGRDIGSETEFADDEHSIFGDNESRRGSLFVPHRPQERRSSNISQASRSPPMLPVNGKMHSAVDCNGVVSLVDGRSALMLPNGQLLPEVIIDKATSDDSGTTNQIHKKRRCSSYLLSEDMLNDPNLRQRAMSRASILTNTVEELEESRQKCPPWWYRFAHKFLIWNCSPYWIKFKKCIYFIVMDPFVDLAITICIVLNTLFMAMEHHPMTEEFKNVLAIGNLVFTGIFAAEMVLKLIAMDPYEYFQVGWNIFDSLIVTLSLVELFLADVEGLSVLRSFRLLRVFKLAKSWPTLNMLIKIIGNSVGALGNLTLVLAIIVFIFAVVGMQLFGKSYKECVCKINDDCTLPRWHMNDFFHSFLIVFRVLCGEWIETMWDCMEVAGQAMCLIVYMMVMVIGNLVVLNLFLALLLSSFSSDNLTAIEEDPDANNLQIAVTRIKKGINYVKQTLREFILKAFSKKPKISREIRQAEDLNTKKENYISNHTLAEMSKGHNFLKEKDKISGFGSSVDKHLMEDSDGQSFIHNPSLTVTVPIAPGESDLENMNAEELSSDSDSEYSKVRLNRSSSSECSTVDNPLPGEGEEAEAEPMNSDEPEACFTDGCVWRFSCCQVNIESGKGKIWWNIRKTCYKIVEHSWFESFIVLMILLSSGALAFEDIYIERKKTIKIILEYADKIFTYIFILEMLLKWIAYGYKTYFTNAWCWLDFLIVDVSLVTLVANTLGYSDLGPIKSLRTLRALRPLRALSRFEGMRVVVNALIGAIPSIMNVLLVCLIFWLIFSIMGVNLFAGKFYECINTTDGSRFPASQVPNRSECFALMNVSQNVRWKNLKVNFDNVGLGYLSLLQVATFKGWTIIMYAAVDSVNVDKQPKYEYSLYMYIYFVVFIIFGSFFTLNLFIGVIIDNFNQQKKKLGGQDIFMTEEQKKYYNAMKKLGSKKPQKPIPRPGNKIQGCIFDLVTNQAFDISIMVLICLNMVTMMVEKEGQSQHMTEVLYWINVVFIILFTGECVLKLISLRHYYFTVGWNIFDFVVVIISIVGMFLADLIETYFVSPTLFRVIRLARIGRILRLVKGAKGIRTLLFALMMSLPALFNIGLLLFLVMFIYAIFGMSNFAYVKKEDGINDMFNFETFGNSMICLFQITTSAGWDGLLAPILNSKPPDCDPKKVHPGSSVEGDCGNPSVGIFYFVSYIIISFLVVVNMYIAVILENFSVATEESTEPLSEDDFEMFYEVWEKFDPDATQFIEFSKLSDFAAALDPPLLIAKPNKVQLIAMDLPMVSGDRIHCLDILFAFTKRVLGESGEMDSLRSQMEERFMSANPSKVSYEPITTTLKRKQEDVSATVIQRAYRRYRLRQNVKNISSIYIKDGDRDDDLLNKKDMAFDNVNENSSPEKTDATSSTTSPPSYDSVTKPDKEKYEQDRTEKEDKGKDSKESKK
human PXR, sequence (O75469 whole entry): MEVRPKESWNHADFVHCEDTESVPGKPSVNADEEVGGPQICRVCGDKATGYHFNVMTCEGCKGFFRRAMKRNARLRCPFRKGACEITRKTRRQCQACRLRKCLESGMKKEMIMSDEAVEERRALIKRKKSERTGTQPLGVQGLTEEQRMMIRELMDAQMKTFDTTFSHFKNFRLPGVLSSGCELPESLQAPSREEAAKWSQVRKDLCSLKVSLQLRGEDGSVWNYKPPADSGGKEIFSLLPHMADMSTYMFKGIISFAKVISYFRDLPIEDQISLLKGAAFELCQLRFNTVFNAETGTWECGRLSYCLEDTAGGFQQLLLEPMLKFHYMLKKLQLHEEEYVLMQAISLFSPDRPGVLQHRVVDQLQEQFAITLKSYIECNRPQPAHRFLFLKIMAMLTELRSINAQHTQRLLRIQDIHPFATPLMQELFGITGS
human Nav1.7, sequence (Q15858 whole entry): as the sequence (Q15858 whole entry) above

SMILES | IC50 (hNav1.7) | RLM in vitro (RLM in vitro) | human PXR @ 2 uM POCS (human PXR) | IC50 (human Nav1.7)
COc1cc(C#CC(C)(C)C(F)(F)F)c(F)cc1-n1c(=O)ccc2cc(S(=O)(=O)Nc3ccon3)ccc21 (atropisomer, axis not shown; (P)) [Example 2, (P)-1-(5-fluoro-2-methoxy-4-(4,4,4-trifluoro-3,3-dimethylbut-1-yn-1-yl)phenyl)-N-(isoxazol-3-yl)-2-oxo-1,2-dihydroquinoline-6-sulfonamide] | 1.2 nM | <14.0 µL/min/mg | 1.38% | 
COc1cc(C#C[C@H]2C[C@@H]2C(F)(F)F)c(F)cc1-n1c(=O)ccc2cc(S(=O)(=O)Nc3ccon3)ccc21 (atropisomer, axis not shown; (P)) [Example 4, (P)-1-(5-fluoro-2-methoxy-4-((2-(trifluoromethyl)cyclopropyl)ethynyl)phenyl)-N-(isoxazol-3-yl)-2-oxo-1,2-dihydroquinoline-6-sulfonamide] |  | <14.0 µL/min/mg | 13.54% | 
COc1cc(C#CC2CCCC2)c(Cl)cc1-n1c(=O)ccc2cc(S(=O)(=O)Nc3ccon3)ccc21 (atropisomer, axis not shown; (P)) [Example 6, (P)-1-(5-chloro-4-(cyclopentylethynyl)-2-methoxyphenyl)-N-(isoxazol-3-yl)-2-oxo-1,2-dihydroquinoline-6-sulfonamide] |  | 58 µL/min/mg | −3.96% | 
COc1cc(C#CC2CCCC2)c(F)cc1-n1c(=O)ccc2cc(S(=O)(=O)Nc3cccnn3)ccc21 [Example 9] | 8.95 nM | 32.2 µL/min/mg | 11.80% | 19.3 nM
COc1cc(C#CC2(C(F)(F)F)CC2)c(F)cc1-n1c(=O)ccc2cc(S(=O)(=O)Nc3ccon3)ccc21 (atropisomer, axis not shown; (P)) [Example 5, (P)-1-(5-fluoro-2-methoxy-4-((1-(trifluoromethyl)cyclopropyl)ethynyl)phenyl)-N-(isoxazol-3-yl)-2-oxo-1,2-dihydroquinoline-6-sulfonamide] |  | <14.0 µL/min/mg | 1.73% | 
COc1cc(C#CC2CCCC2)c(F)cc1-n1c(=O)ccc2cc(S(=O)(=O)Nc3ccon3)ccc21 (atropisomer, axis not shown; (P)) [Example 10, (P)-1-(4-(cyclopentylethynyl)-5-fluoro-2-methoxyphenyl)-N-3-isoxazolyl-2-oxo-1,2-dihydro-6-quinoline Sulfonamide] |  | 39.8 µL/min/mg | 2.94% | 
COc1cc(C#C[C@@H]2C[C@@H]2C(F)(F)F)c(F)cc1-n1c(=O)ccc2cc(S(=O)(=O)Nc3ccon3)ccc21 (single isomer, unassigned) [Example 4A] | 6.8 nM | <14.0 µL/min/mg | 23.19% | 
COc1cc(C#CC2CCCC(F)(F)C2)c(F)cc1-n1c(=O)ccc2cc(S(=O)(=O)Nc3ccon3)ccc21 (racemic) [Example 7, (P) 1-(4-((3,3-difluorocyclohexyl)ethynyl)-5-fluoro-2-methoxyphenyl)-N-(isoxazol-3-yl)-2-oxo-1,2-dihydroquinoline-6-sulfonamide] | 7.8 nM |  |  | 
COc1cc(C#C[C@H]2C[C@@H]2C(F)(F)F)c(F)cc1-n1c(=O)ccc2cc(S(=O)(=O)Nc3ccon3)ccc21 (stereo in doubt) [Example 4, (P)-1-(5-fluoro-2-methoxy-4-((2-(trifluoromethyl)cyclopropyl)ethynyl)phenyl)-N-(isoxazol-3-yl)-2-oxo-1,2-dihydroquinoline-6-sulfonamide] | 7 nM |  |  | 
COc1cc(C#C[C@@H]2C[C@H]2C(F)(F)F)c(F)cc1-n1c(=O)ccc2cc(S(=O)(=O)Nc3ccon3)ccc21 (stereo in doubt) [Example 4B, 1-(5-fluoro-2-methoxy-4-(((1R,2R)-2-(trifluoromethyl)cyclopropyl)ethynyl)phenyl)-N-3-isoxazolyl-2-oxo-1,2-dihydro-6-quinolinesulfonamide] | 5.5 nM | <14.0 µL/min/mg | −3.81% | 
COc1cc(C#CC2CCC(F)(F)CC2)c(F)cc1-n1c(=O)ccc2cc(S(=O)(=O)Nc3ccon3)ccc21 (atropisomer, axis not shown; (P)) [Example 1, (P)-1-(4-((4,4-difluorocyclohexyl)ethynyl)-5-fluoro-2-methoxyphenyl)-N-(isoxazol-3-yl)-2-oxo-1,2-dihydroquinoline-6-sulfonamide] | 3.3 nM | <14.0 µL/min/mg | 2.36% | 
COc1cc(C#CC2CCCC2)ccc1-n1c(=O)ccc2cc(S(=O)(=O)Nc3ccon3)ccc21 (atropisomer, axis not shown; (P)) [Example 3, (P)-1-(4-(cyclopentylethynyl)-2-methoxyphenyl)-N-(isoxazol-3-yl)-2-oxo-1,2-dihydroquinoline-6-sulfonamide] | 7.5 nM | 39 µL/min/mg | −1.44% | 49.7 nM
COc1cc(C#CC2CCCC(F)(F)C2)c(F)cc1-n1c(=O)ccc2cc(S(=O)(=O)Nc3ccon3)ccc21 (atropisomer, axis not shown; (P)) [Example 7, (P) 1-(4-((3,3-difluorocyclohexyl)ethynyl)-5-fluoro-2-methoxyphenyl)-N-(isoxazol-3-yl)-2-oxo-1,2-dihydroquinoline-6-sulfonamide] |  | <14.0 µL/min/mg | −0.78% | 
